Measured values from patent US8324282B2, “Alkylating agent combinations in the treatment of cancer” (Case Western Reserve University, priority 1999, dated 2012).

Legend:
[1] = Toxicity evaluation in mice bearing HCT116 xenograft; conditions: Table 2 doses
Description: Tumors in Nude Mice. Tumor cells (5×10^6) were injected into flanks of female athymic HSD nude mice, at 6-8 weeks of age. The tumors were measured with calipers using the National Cancer Institute formula: V=L(mm)×I^2 (mm)/2 where L is the largest diameter and I is the smallest diameter of the tumor. […] Toxicity Evaluation. Toxicity after treatment was evaluated by body weight measurements and peripheral WBC counting. Body weight was measured three times weekly from the first treatment until 2 weeks after the end of treatment. The weight loss was expressed as a percentage of the initial weight (initial weight−lowest weight/initial weight×100%).

[2] = tested on: human bone marrow cells (CD34+ cells); assay: Colony forming assay, human bone marrow / CD34+ cells; assay type: cell-based; conditions: human CD34+ cells; colony forming assay
From the text: We observed less myelosuppression and less weight loss using TMZ and MX than using TMZ and BG. […] To test this hypothesis, we conducted in vitro experiments comparing the sensitivity to BG+TMZ and MX+TMZ in colon cancer cell lines with that of mouse bone marrow and human bone marrow cells. […] MX increased TMZ killing by 4 fold in SW480 cells. […] Topoisomerase (Topo) I and Topo II recognize spontaneous AP sites and form stable cleavable complexes. We hypothesized that AP sites formed during repair of TMZ-induced N7 mG and N3 mA adducts would also be recognized by Topo I and Topo II. However since Base Excision Repair [BER] is normally quite efficient, we further hypothesized that the impact of Topo I and Topo II would be most important after MX inhibition of BER; increased unrepaired MX adducted AP sites should increase Topo mediated strand breaks and apoptosis. Therefore, potentiation of TMZ cytotoxicity by MX would be dependent on Topo I and II. […] Lack of Topo I and II results in less cleavable complex formation, fewer double strand DNA breaks, and less apoptosis. We predict a better therapeutic index for the combination of MX/TMZ than observed with BG/TMZ because of the relative overexpression of topoisomerases I and II in malignant cells compared to marrow progenitors.

DEtp cell line = assay: DEtp subline of DLD1; assay type: cell-based; conditions: DEtp cell line
From the text: We also investigated whether TMZ and MX-induced MX-AP sites may also act as poisons of topoisomerase II α (topo II), producing dual lethal targets. To analyze the effect of MX-AP site on topo II-mediated DNA cleavage, a position-specific MX-AP site was generated on topo II cleavage sites using oligonuleotides for cleavage assay. […] We also found prolonged induction of topo II and remarkable increase in DNA double strand breaks in cells treated with TMZ and MX compared to TMZ alone. Similar results were also observed in cells treated with etoposide but not with N-methyl-maleimide (a catalytic inhibitor of topo II and also an antagonizer of etoposide). Moreover, the potentiation of TMZ by MX was decreased in DEtp cell line that was a subline derived from DLD1 and 5-fold more resistant to etoposide compared to the parental cell line.

HCT116 cells [3] = assay: Colony survival assay, HCT116; assay type: cell-based, human; conditions: HCT116
From the text: Chemicals and Reagents. BG was generously provided by Dr. Robert Moschel (Frederick Cancer Research and Development Center, National Cancer Institute). Stock solution was made in dimethylsulfoxide. TMZ and BCNU were obtained from the Drug Synthesis and Chemistry Branch, Drug Therapeutic Program, National Cancer Center Institute. PD128763 was a gift from Park-Davis Pharmaceutical Division. 6-AN, 3-AB, MX and methylmethane sulfonate (MMS) were purchased from Sigma (ST. Louis, Mo.). Stock solutions of PD128763, 3-AB and 6-AN were prepared by dissolving in dimethylsulfoxide and added to cell culture at a final concentration of <1% DMSO, when cells were treated with these compounds. MX was dissolved in sterilized water (pH 7.0). All stock solutions were kept at −20° C. BCNU was prepared fresh in 0.5 ml of 100% ethanol, diluted in PBS, and used with in 10 min. Colony Survival Assay. SW480 cells were obtained from the ATCC. HCT116 cells were obtained from R. Boland, University of Michigan Medical Center. All cell lines were cultured in appropriate growth medium.
Cells (2000/dish) were plated, adhered for 18 hrs and treated with TMZ or
MMS plus or minus modifiers such as […], MX, 6-AN, 3-AB or PD128763, according to experimental protocol. After treatment, cells were washed and fresh medium was replaced. The cells were grown for a further 7 days prior to staining with methylene blue for determination of colonies containing more than 50 cells. Comparisons of drug induced cytotoxicity consisted of a calculation of the dose modification factor (DMF), defined as the ratio of the IC50 of either TMZ or MMS in the absence to that in the presence of indicted modifier(s), i.e., DMF═IC50 for TMZ alone/IC50 for TMZ plus modifier(s).

SW480 cells = assay: Flow cytometry cell cycle distribution and apoptosis, SW480
Description: Median Effect Analysis (MEA). MEA was used to determine the dose-response interactions between TMZ and either MX or PD 128763. Drugs were combined at the ratio of the IC50 values for either TMZ and MX or TMZ and PD 128763 as determined by survival/concentration curves. The combination was compared to the cytotoxicity of each drug alone in every experiment. The combination index (CI) was determined from colony-forming assays at increasing levels of cell killing, using analysis of multiple drug interaction program (Biosoft, Cambridge, United Kingdom) developed based on method of Chou and Talalay (Chou and Talalay “Quantitative analysis of dose-effect relationship: the combined effects of multiple drugs on enzyme inhibitors” In: G. Weber (ed.) Advances in Enzyme Regulation, pp. 27-55, New York: Pergamon Press, 1983). […] DNA fluorescence of PI-stained cells was measured with an Elite ESP flow cytometer/cell sorter (Coulter, Miami, Fla.). Cell cycle distribution was analyzed with Modfit 5.2 program (Verity software, Topsham, Mass.) at least 10,000 cells per data point. […] The tumors were measured with calipers using the National Cancer Institute formula: V=L(mm)×I^2 (mm)/2 where L is the largest diameter and I is the smallest diameter of the tumor. […] The relative tumor volume (V/V0) was calculated by dividing the measured tumor volume (V) by the initial tumor volume (V0) at day 0. […]

SW480 xenograft = SW480 xenograft tumor response in nude mice; assay type: in vivo; conditions: SW480 xenograft; Table 1 doses: TMZ 120, MX 2, BG+TMZ 30/120, MX+TMZ 2/120 mg/kg; daily for 5 days
AP sites in SW480 cells = assay: AP sites measured with ARP reagent and S phase in SW480 cells, prolonged MX exposure; conditions: MX and TMZ over 72 h
From the text: Cell lines used in this study include SW480 (MMR wt, p53 mut), HCT116 (hMLH1 mut, p53 wt) and HCT15 (hMSH6 mut, p53 mut). We measured AP sites using ARP reagent, noting that ARP and MX compete for binding to AP sites. […] It is likely that cytotoxicity elicited by both topol/II inhibitors and MX-AP sites is due to DNA cleavable complexes, and is thus dependent on the level of topo I/II expression.

HCT116 cells [4] = assay: Growth inhibition assay (MTT), HCT116; assay type: cell-based, human; conditions: HCT116; MX 6 mM plus H2O2 0-150 μM 1 hr
Description: In this experiment, a growth inhibition assay was carried out with H2O2, an oxidizing agent that mimics the effect of chemotherapeutic agents and radiation. Cells in the exponential phase were plated (1×10^4) in 24-well tissue culture plates. After attachment overnight, the cells were incubated with hydrogen peroxide (H2O2) (0-150 μM) or MX (6 mM) plus H2O2 for 1 hr. Five days after treatment, the media was discarded, and 100 μl of MTT (5 mg/ml in PBS) was added in 1 ml fresh media to each well for 4 hrs at 37° C. The MTT solution was then removed, and the formazan crystals were dissolved in 200 μl/well of DMSO for 20 min and changes in absorbance were determined at A540nm. Percentage growth inhibition was calculated by comparison of the A540nm reading from treated versus control cells.
The agents contemplated for combinations with MX in this example are agents which incorporate into DNA and are repaired by BER to form AP sites. Cell-growth inhibition was carried out with HCT116 cells to test MX-potentiated cytotoxicity of iododeoxyuridine (IUdR), which has been recognized as a radiosensitizing agent since the early 1960's.

HCT116 cells [5] = assay: Flow cytometry cell cycle distribution and apoptosis, HCT116; assay type: cell-based, human

CON [MX, methoxyamine]
Toxicity (max. BW loss) [1]: 8.3% | potentiation of TMZ cytotoxicity [2]: no potentiation | potentiation of TMZ by MX (DEtp cell line): decreased | cytotoxicity of MX alone (HCT116 cells [3]; 6 mM MX): nontoxic | DMF of MMS (HCT116 cells [3]; MMS 0-3 mM plus 6 mM MX 1 hr vs MMS alone): 2.3 | DMF (IC50 for TMZ alone/IC50 for TMZ plus modifier) (HCT116 cells [3]; modifier plus TMZ vs TMZ alone): 3.1 fold | effect of modifier on BCNU cytotoxicity (HCT116 cells [3]; without BG): No enhancement | effect of modifier alone on cell cycle distribution (SW480 cells): did not affect | Tumor growth delays (SW480 xenograft): 2.0 ± 0.5 days | AP sites MX bound (AP sites in SW480 cells): 80% | sensitivity to killing induced by H2O2 (HCT116 cells [4]): significantly increased sensitivity | effect on cell cycle distribution (HCT116 cells [5]): did not affect
